From patent US9783551B2, “Pyranochromenyl phenol derivative, and pharmaceutical composition for treating metabolic syndrome or inflammatory disease” (GLACEUM, INC., priority 2013, dated 2017) come the findings set out here.

One assay relates to C2C12 cells. As to the kind of experiment: Glucose uptake (2-NBDG) in C2C12 cells. Particulars: compared with Rosiglytazone and Metformin. In kind it is cell-based. As for the experimental part:
In terms of capacity of glucose uptake in C2C12 cells, the compound (Compound 15) of Example 14 of the present invention was compared with the existing Rosiglytazone and Metformin which were used or are currently used as a therapeutic agent for diabetes. The C2C12 cell was cultured in a Dulbecco's modified eagle medium (DMEM) supplemented with 10% fetal bovine serum (FBS), penicillin (120 unit/mL), and streptomycin (75 μg/mL), the medium used for differentiation was a DMEM medium supplemented with 1% horse serum, and the C2C12 cell was cultured in the DMEM medium for 4 days. The cell thus cultured was treated with Compound 15 in a low-glucose, serum-free medium supplemented with 2-[N-(7-nitrobenz-2-oxa-1,3-diazol-4-yl)amino]-2-deoxy-d-glucose (2-NBDG) for 24 hours to measure the glucose absorbance at an excitation wavelength of 485 nm and an emission wavelength of 535 nm using a fluorescent detector. The same experiment was performed on Rosiglytazone and Metformin.

A further assay addresses PTP1B (Homo sapiens (Human), UniProt P18031). As to the kind of experiment: Experiment of PTP1B inhibition (p-NPP dephosphorylation). In kind it is biochemical. Particulars: 2 mM p-NPP substrate, 30° C., 30 minutes. In outline: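 PTP1B reacted with 2 mM p-NPP in 50 mM citrate pH 6.0, 0.1 M NaCl, 1 mM EDTA, 1 mM DTT plus compound at various concentrations, 30 °C for 30 min. Reaction stopped with 1 N NaOH; p-nitrophenol absorbance gives IC50.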

The subject of another assay is db/db mice. Put plainly: Anti-diabetic effects for db/db mice (glycosylated hemoglobin). Type of assay: in vivo, C57BLKS/J-db/db mice. As for the experimental part:
5-week-old male C57BLKS/J-db/db mice (Central Lab. Animal Inc.) were purchased and acclimatized for 2 weeks, and then used in this experiment. Samples were exactly taken from the compounds prepared in Examples 4 and 15 of the present invention (Compounds 5 and 16) according to the administration dose and put into Falcon tubes, a 0.5% methyl cellulose aqueous solution stored refrigerated was placed at room temperature to allow the excipients to be warmed at room temperature, 16 ml of each of the excipients was added to a 50 ml Falcon tube, and a vortex mixer was used to primarily mix the ingredients in a soft manner, and then a suspension was obtained and homogenized by treating the sample for 3 minutes using a homogenizer (30,000 rpm, CPT-1600E, Kinemtica, Switzerland), and then ultrasonically treated for 30 minutes. The sample thus prepared was administered through oral gavage using a disposable plastic syringe equipped with a sonde once daily for 42 days (6 weeks).
The glycosylated hemoglobin (HbA1c) was measured while the db/db mice were bred. The gyclosylated hemoglobin was measured at 2 days prior to group separation, 4 weeks after administration, and 6 weeks after administration, and was measured by fasting the mice for 4 hours on the measurement date, collecting blood from the caudal vein before each material was administered, and using a device for measuring glycosylated hemoglobin (SD A1cCare, SD Biosensor, Inc., Korea).

PTP1B, sequence (P18031 whole entry, species assumed): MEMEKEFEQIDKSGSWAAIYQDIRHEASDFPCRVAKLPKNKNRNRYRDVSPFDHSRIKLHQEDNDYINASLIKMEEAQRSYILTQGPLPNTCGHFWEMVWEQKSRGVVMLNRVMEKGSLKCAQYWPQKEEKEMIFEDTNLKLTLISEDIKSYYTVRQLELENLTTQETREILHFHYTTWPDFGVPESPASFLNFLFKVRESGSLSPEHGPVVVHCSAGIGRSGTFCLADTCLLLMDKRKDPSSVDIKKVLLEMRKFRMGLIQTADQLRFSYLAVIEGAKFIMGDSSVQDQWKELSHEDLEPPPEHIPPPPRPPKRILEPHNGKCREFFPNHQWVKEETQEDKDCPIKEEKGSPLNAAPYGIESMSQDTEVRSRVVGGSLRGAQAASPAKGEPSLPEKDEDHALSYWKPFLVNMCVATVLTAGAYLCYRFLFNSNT

As a reminder, the IC50 is the concentration that inhibits the measured activity by half. Higher therefore signals weaker potency in that assay. Regarding `CCOc1ccc(C2COc3c(ccc4c3CCC(C)(C)O4)C2)c(O)c1` (stereo not drawn) [Compound 15, 3-(2-hydroxy-4-ethoxyphenyl)-8,8-dimethyl-2,3,4,8,9,10-hexahydropyrano [2,3-f] chromene], the “capacity of promoting glucose uptake, in words” value in the assay with C2C12 cells is listed as “better than that of the existing therapeutic agent for diabetes”. In addition, at PTP1B, inhibition was half-maximal at 8.6 µM (IC50).
`CCCc1ccc(C2COc3c(ccc4c3CCC(C)(C)O4)C2)c(O)c1` (stereo not drawn) [Compound 5, 3-(2-hydroxy-4-propylphenyl)-8,8-dimethyl-2,3,4,8,9,10-hexahydropyrano [2,3-f] chromene]: the “HbA1c (%) 4 weeks” value in the assay on db/db mice (4 weeks after administration, 300 mg/kg oral once daily) came to 5.3%. For the same compound, the “HbA1c (%) 6 weeks” value with db/db mice (6 weeks after administration, 300 mg/kg oral once daily) turned out to be 5.7%. For the same compound, the “HbA1c (%) Before administration” value with db/db mice (before administration, 300 mg/kg group) stood at 4.7%. This compound also returned an IC50 on PTP1B of 2.8 µM.
